{
  "source": "patent US12343319B2",
  "about": "“Compositions and methods for treatment of diseases and disorders” (Atai Therapeutics Inc., priority 2023, dated 2025)",
  "key": {"C57BL/6J male mice": {"test_system": "C57BL/6J male mice", "experiment": "Mouse forced swim test 24 hr after single administration", "format": "in vivo", "conditions": "3, 10 & 30 mg/kg i.p., 24 hr post-administration", "description": "Young adult C57BL/6J male mice (8-9 weeks old at arrival; n=113) were purchased from Charles River (DE). All C57BL/6J mice were housed in groups of 4 per cage. Mice were maintained under controlled conditions (21±2° C., 50±1% humidity, 12/12 h light/dark cycles, lights on at 7 a.m.) with food and water available ad libitum.\nExperimental Design: The experimental procedures were in accordance with the European Communities Council Directive (Directive 2010/63 EU into the Polish Directives (Journal of Laws of 2021, item 1331, as amended)) and approved by the Local Ethic Committee in Olsztyn (Approval No. 27/203 from 22 Mar. 2023). […]\nForced Swim Test: After 17 days of acclimatization (11-12 weeks old), all mice were randomly assigned to experimental groups (n=14-15/group). Sample size (n=14 per group) was determined based on G-power calculations using alpha 0.05, t-test and effect size calculation based on mean and SD from vehicle and positive control groups. […] Because little immobility is observed during the first 2 minutes of the FST, only immobility occurring during the last 4 minutes was scored and analyzed. […] All test sessions were recorded using a video camera placed on the side of the cylinder for subsequent behavioral analysis by scorers blinded to the treatment conditions. […]\nData Analysis: Data for each compound have been analyzed separately using the GraphPad Prism 9 statistical software. […]"}, "Male WKY rats": {"test_system": "Male WKY rats", "experiment": "Confirmatory 30 mg/kg sleep, locomotor, body temperature and qEEG study in WKY rats", "format": "in vivo, rat", "conditions": "30 mg/kg IP", "description": "The aim of the current study was to confirm the effects of compound 2-2 (30 mg/kg) on sleep-wake behavior and EEG brain oscillatory power in an independent cohort of male Wistar Kyoto rats. The study was carried out similarly to Examples 7 and 9 with differences noted below. Male WKY rats (n=8, 323-352 g at the start of dosing) were housed in groups of 2-3 animals per cage with standard housing conditions."}, "[1]": {"biological_target": "T1, 5-HT2A receptors in the mouse frontal cortex (Mus musculus, UniProt P35363)", "T1 construct": "Left frontal cortices from each animal were homogenized individually; from tissue", "T1 sequence (P35363 whole entry)": "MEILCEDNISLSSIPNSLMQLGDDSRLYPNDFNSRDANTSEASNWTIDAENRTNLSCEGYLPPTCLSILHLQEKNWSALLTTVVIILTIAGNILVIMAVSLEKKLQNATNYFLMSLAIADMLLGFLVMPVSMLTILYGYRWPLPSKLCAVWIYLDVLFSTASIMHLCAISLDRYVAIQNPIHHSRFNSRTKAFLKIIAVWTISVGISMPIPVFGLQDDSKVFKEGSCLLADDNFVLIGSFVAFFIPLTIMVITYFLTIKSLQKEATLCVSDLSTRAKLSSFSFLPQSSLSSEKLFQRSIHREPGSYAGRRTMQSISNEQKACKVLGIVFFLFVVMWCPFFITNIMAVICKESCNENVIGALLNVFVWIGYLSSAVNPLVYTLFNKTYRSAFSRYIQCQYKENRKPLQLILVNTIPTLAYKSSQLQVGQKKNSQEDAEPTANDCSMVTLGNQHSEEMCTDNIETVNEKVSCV", "experiment": "Ex vivo 5-HT2A receptor occupancy ([3H]cimbi-36) in mouse frontal cortex"}, "Male Sprague-Dawley rats": {"test_system": "Male Sprague-Dawley rats", "experiment": "5-HT2A/2C/1A-mediated behaviors, locomotor activity and body temperature in rats", "format": "in vivo, rat", "description": "Forty (40) male Sprague-Dawley rats were used as test subjects in this study. Animals were dosed with vehicle (IP), one of 3 doses of compound 2-2 (3 mg/kg, 10 mg/kg, 30 mg/kg IP) or psilocybin (1 mg/kg SC) and, following the appropriate pre-treatment time, were placed in locomotor activity boxes and continuously monitored for a 1 hr period with data collected into 10-minute time bins. Animals were visually assed for overt behavioral signs, including biomarkers for 5-HT2A receptor target engagement (i.e. wet dog shakes, back muscle contractions and stereotypic behaviors), 5-HT2C receptor activation (yawning, penile grooming), and 5-HT1A behaviors (forepaw treading, hindlimb abduction). Additional behavioral and somatic signs characteristic of 5-HT syndrome (i.e. tremor, salivation, flat body posture) also were measured. Core body temperature change was determined at 0 hr (pre-dose), 1 hr, and 2 hr. Simultaneously, the spontaneous locomotor activity of the rats was measured using automated Med Associates activity test chambers. Activity data collected included total distance travelled, rearing counts, and ambulatory episodes. LMA was measured for a total of 2 hours (i.e. the first hour to include visual assessments of behavioral signs, and the second hour the animals will not be assessed for behavioral signs) with data collected into 10 minute time bins. The tracking arena measured 17″ W×17″ L×12″ H, sensor bars were secured 1″ above the floor to track distance travelled, and a second set of sensor bars were placed ˜5″ above the floor to measure vertical movement and rearing activity. The parameters set on the tracking software were as follows: resolution −50 ms, box size −4 beams, resting delay −500 ms, and ambulatory trigger −3.\nTable 14 outlines receptor activity and related behavioral and/or physiological measures."}, "5-HT2A": {"biological_target": "5-HT2A (Homo sapiens, UniProt P28223)", "sequence (P28223 whole entry)": "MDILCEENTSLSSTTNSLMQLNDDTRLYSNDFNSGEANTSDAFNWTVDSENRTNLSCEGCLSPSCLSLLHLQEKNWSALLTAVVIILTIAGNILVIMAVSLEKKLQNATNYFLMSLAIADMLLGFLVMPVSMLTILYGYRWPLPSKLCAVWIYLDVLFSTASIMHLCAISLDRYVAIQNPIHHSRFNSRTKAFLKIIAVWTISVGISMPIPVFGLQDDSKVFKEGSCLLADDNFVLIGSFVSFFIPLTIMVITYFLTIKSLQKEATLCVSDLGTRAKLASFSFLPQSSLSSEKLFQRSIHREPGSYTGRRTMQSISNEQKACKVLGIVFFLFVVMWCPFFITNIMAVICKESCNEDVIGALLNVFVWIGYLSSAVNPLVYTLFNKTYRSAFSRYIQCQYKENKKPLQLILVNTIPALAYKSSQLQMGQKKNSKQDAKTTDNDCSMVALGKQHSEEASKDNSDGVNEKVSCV", "experiment": "5-HT2A receptor binding in human post-mortem frontal cortical tissue"}, "[2]": {"conditions": "5-HT1A agonism, 3, 10, 30 mg/kg IP"}, "[3]": {"conditions": "5-HT2C agonism, 3, 10, 30 mg/kg IP"}, "[4]": {"conditions": "excess 5-HT agonism (5-HT syndrome), 3, 10, 30 mg/kg IP"}},
  "note": "“Also recorded” adds a separate entry of the source.",
  "data": [
    {"compound": "COc1ccc(OC)c(CCNCc2cc(C)cc(Cl)c2)c1", "note": "[Compound 2-1, N-(3-chloro-5-methylbenzyl)-2-(2,5-dimethoxyphenyl)ethan-1-amine]", "values": [
      {"measurement": "immobility time in mouse FST", "setting": "C57BL/6J male mice", "value": "lack of robust differences; also recorded: Neither compound 2-1 (3, 10 & 30 mg/kg) nor compound 2-2 (3 & 30 mg/kg) showed significant reductions"}
    ]},
    {"compound": "COc1ccc(OC)c(CCNCc2cc(C)cc(F)c2)c1", "note": "[Compound 2-2, 2-(2,5-dimethoxyphenyl)-N-(3-fluoro-5-methylbenzyl)ethan-1-amine]", "values": [
      {"measurement": "NREM sleep latency", "setting": "Male WKY rats", "value": "no significant effect"},
      {"measurement": "body temperature", "setting": "Male WKY rats", "value": "transiently reduced"},
      {"measurement": "locomotion", "setting": "Male WKY rats", "value": "did not affect"},
      {"measurement": "EC50", "setting": "[1]", "value": 1930, "unit": "nM"},
      {"measurement": "ex vivo occupancy of 5-HT2A receptors (RO)", "setting": "[1]; across 1, 3, 10 mg/kg IP", "value": "21-60%"},
      {"measurement": "brain concentration at 50% 5-HT2A RO", "setting": "[1]; in brain", "value": 1608, "unit": "ng/g"},
      {"measurement": "receptor occupancy at 1 mg/kg", "setting": "[1]; mouse, 1 mg/kg IP, 15 minutes post dosing, read-out: % Receptor Occupancy (RO)", "value": 21, "unit": "%"},
      {"measurement": "remaining activity at 1 mg/kg", "setting": "[1]; mouse, 1 mg/kg IP, 15 minutes post dosing, read-out: % of Control Binding", "value": 79, "unit": "%"},
      {"measurement": "receptor occupancy at 3 mg/kg", "setting": "[1]; mouse, 3 mg/kg IP, 15 minutes post dosing, read-out: % Receptor Occupancy (RO)", "value": 37, "unit": "%"},
      {"measurement": "remaining activity at 3 mg/kg", "setting": "[1]; mouse, 3 mg/kg IP, 15 minutes post dosing, read-out: % of Control Binding", "value": 63, "unit": "%"},
      {"measurement": "receptor occupancy at 10 mg/kg", "setting": "[1]; mouse, 10 mg/kg IP, 15 minutes post dosing, read-out: % Receptor Occupancy (RO)", "value": 60, "unit": "%"},
      {"measurement": "remaining activity at 10 mg/kg", "setting": "[1]; mouse, 10 mg/kg IP, 15 minutes post dosing, read-out: % of Control Binding", "value": 40, "unit": "%"},
      {"measurement": "ED50", "setting": "[1]; mouse, IP, non-linear regression, read-out: dose at 50% 5-HT2A RO", "value": 6.14, "unit": "mg/kg"},
      {"measurement": "distance travelled during the first 20 minutes of the 2 hour test", "setting": "Male Sprague-Dawley rats; 30 mg/kg IP", "value": "decreased"},
      {"measurement": "total ambulatory episodes", "setting": "Male Sprague-Dawley rats; 30 mg/kg IP", "value": "decreased"},
      {"measurement": "total rearing counts", "setting": "Male Sprague-Dawley rats; 30 mg/kg IP", "value": "decreased"},
      {"measurement": "total distance travelled", "setting": "Male Sprague-Dawley rats; 3, 10, 30 mg/kg IP, 2 hour test", "value": "did not affect"},
      {"measurement": "Flat body posture", "setting": "Male Sprague-Dawley rats; 5-HT1A agonism / excess 5-HT agonism, 30 mg/kg IP (highest dose tested), 30 mg/kg", "value": "induced flat body posture; also recorded: Significant Increase"},
      {"measurement": "Forepaw treading (FPT)", "setting": "Male Sprague-Dawley rats; [2]", "value": "No effect"},
      {"measurement": "Hindlimb abduction (HLA)", "setting": "Male Sprague-Dawley rats; [2]", "value": "No effect"},
      {"measurement": "Penile grooming (PG)", "setting": "Male Sprague-Dawley rats; [3]", "value": "No effect"},
      {"measurement": "Yawning", "setting": "Male Sprague-Dawley rats; [3]", "value": "No effect"},
      {"measurement": "Salivation", "setting": "Male Sprague-Dawley rats; [4]", "value": "No effect"},
      {"measurement": "Tremor", "setting": "Male Sprague-Dawley rats; [4]", "value": "No effect"},
      {"measurement": "Locomotor activity", "setting": "Male Sprague-Dawley rats; mixed/non-selective, 30 mg/kg IP", "value": "Significant decrease"},
      {"measurement": "IC50", "setting": "5-HT2A", "value": 69, "unit": "nM"},
      {"measurement": "Ki", "setting": "5-HT2A", "value": 30.8, "unit": "nM"}
    ]}
  ]
}
